Drawing on patent US20240317721A1, “PYRAZOLYL DERIVATIVES AS INHIBITORS OF THE KRAS MUTANT PROTEIN” (NOVARTIS AG, priority 2021, published 2024), this text covers IC50 for 27 molecules.

Bounds are passed on as bounds.

Broadly, the IC50 is the point on the concentration scale where inhibition reaches its midpoint.

This assay concerns the target KRasG12C (M1-K169, biotinylated on the N-terminus) (Homo sapiens (Human), UniProt P01116, G12C). Kind of assay: Covalent competition assay: scintillation proximity assay (SPA) quantifying covalent modification of KRASG12C. The format is binding. To be noted: competition with radiolabeled covalent probe (Compound B/Compound A), 2 hours incubation, 10 nM KRasG12C. The procedure, abridged:
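Scintillation proximity readout after streptavidin bead capture (30 min) of biotinylated KRasG12C(M1-K169):GDP, 10 nM final, which was covalently labelled over 2 h by 25 nM radio-probe plus 475 nM cold probe unless blocked by compound.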
Background: SPA uses beads or plates that emit light when radiolabelled molecules are held near them.
Turning to `C=CC(=O)N1CC2(CC(n3nc(N4CCN(C5COCCOC5)C[C@]4(C)CC)c(-c4c(Cl)c(C)cc5[nH]ncc45)c3C)C2)C1` (single isomer, unassigned) [Example 159b], the IC50 worked out at 9 nM.

Regarding `C=CC(=O)N1CC2(CC(n3nc(N4CCN(C5COC5)CC45CCOC5)c(-c4c(Cl)c(C)cc5[nH]ncc45)c3C)C2)C1` (stereo not drawn) [Example 142b, 1-(6-(4-(5-chloro-6-methyl-1H-indazol-4-yl)-5-methyl-3-(9-(oxetan-3-yl)-2-oxa-6,9-diazaspiro[4.5]decan-6-yl)-1H-pyrazol-1-yl)-2-azaspiro[3.3]heptan-2-yl)prop-2-en-1-one], the half-maximal inhibitory concentration (IC50) is greater than 5000 nM.

Consider `C=CC(=O)N1CC2(CC(n3nc(N4CC[C@@H](CN5CC6(C5)CN(C)C(=O)O6)CC4(C)C)c(-c4c(Cl)c(Cl)cc5[nH]ncc45)c3C)C2)C1` (single isomer, unassigned) [Example 284a], for which the IC50 was 1600 nM.

Regarding `C=CC(=O)N1CC2(CC(n3nc(N4CC[C@@H](CN5CC6(C5)CS(=O)(=O)C6)CC4(C)C)c(-c4c(Cl)c(Cl)cc5[nH]ncc45)c3C)C2)C1` (single isomer, unassigned) [Example 248a], the IC50 was greater than 5000 nM.

Regarding `C=CC(=O)N1CC2(CC(n3nc(N4CCCc5c(cnn5C)C4)c(-c4c(Cl)c(C)cc5[nH]ncc45)c3C)C2)C1` (single isomer, unassigned) [Example 43a, 1-(6-(4-(5-chloro-6-methyl-1H-indazol-4-yl)-5-methyl-3-(1-methyl-4,6,7,8-tetrahydropyrazolo[4,3-c]azepin-5(1H)-yl)-1H-pyrazol-1-yl)-2-azaspiro[3.3]heptan-2-yl)prop-2-en-1-one], the concentration for half-maximal inhibition (IC50) is greater than 50000 nM.

With `C=CC(=O)N1CC2(CC(n3nc(N4CC[C@@H](CN5CCN(C6COC6)C[C@@H]5CO)CC4(C)C)c(-c4c(Cl)c(Cl)cc5[nH]ncc45)c3C)C2)C1` (single isomer, unassigned) [Example 290a], the IC50 came to 3400 nM.

On to `C=CC(=O)N1CC2(CC(n3nc(N4CCC(N(CC)C5COC5)CC4(C)C)c(-c4c(Cl)c(Cl)cc5[nH]ncc45)c3C)C2)C1` (single isomer, unassigned) [Example 61a, 1-(6-(4-(5,6-dichloro-1H-indazol-4-yl)-3-(4-(ethyl(oxetan-3-yl)amino)-2,2-dimethylpiperidin-1-yl)-5-methyl-1H-pyrazol-1-yl)-2-azaspiro[3.3]heptan-2-yl)prop-2-en-1-one], for which the IC50 turned out to be 881 nM.

Consider `C=CC(=O)N1CC2(CC(n3nc(N4CCN(CC(C)(C)O)C[C@@]4(C)CC)c(-c4c(Cl)c(C)cc5[nH]ncc45)c3C)C2)C1` (single isomer, unassigned) [Example 164b], for which the IC50 stood at 56 nM.

`C=CC(=O)N1CC2(CC(n3nc(N4CCN(C(=O)OC)CC4(C)C)c(-c4c(Cl)c(C)cc5[nH]ncc45)c3C)C2)C1` (single isomer, unassigned) [Example 125a, methyl 4-(1-(2-acryloyl-2-azaspiro[3.3]heptan-6-yl)-4-(5-chloro-6-methyl-1H-indazol-4-yl)-5-methyl-1H-pyrazol-3-yl)-3,3-dimethylpiperazine-1-carboxylate]: the concentration for half-maximal inhibition (IC50) stood at 2200 nM.

Regarding `C=CC(=O)N1CC2(CC(n3nc(N4CCN(C5CCOCC5)C[C@]4(C)COC)c(-c4c(Cl)c(C)cc5[nH]nc(N)c45)c3C)C2)C1` (single isomer, unassigned) [Example 90a], the IC50 was 23 nM.

On to `C=CC(=O)N1CC2(CC(n3nc(N4CCC(N5CCOCC5)CC4(C)C)c(-c4c(Cl)c(C)cc5[nH]ncc45)c3C)C2)C1` (single isomer, unassigned) [Example 34a, 1-(6-(4-(5-chloro-6-methyl-1H-indazol-4-yl)-3-(2,2-dimethyl-4-morpholinopiperidin-1-yl)-5-methyl-1H-pyrazol-1-yl)-2-azaspiro[3.3]heptan-2-yl)prop-2-en-1-one], for which the IC50 was determined as 3800 nM.

`C=CC(=O)N1CC2(CC(n3nc(N4CC[C@@H](CN5C6CCC5CN(C(C)=O)C6)CC4(C)C)c(-c4c(Cl)c(Cl)cc5[nH]ncc45)c3C)C2)C1` (single isomer, unassigned) [Example 318a]: the IC50 was determined as 4000 nM.

`C=CC(=O)N1CC2(CC(n3nc(N4CC[C@@H](CN(C5COC5)C5COC5)CC4(C)C)c(-c4c(Cl)c(Cl)cc5[nH]ncc45)c3C)C2)C1` (single isomer, unassigned) [Example 282b]: the 50% inhibitory concentration (IC50) worked out at 7 nM.

For the molecule `C=CC(=O)N1CC2(CC(n3nc(N4CC[C@@H](CN5C[C@@H]6CS(=O)(=O)C[C@@H]6C5)CC4(C)C)c(-c4c(Cl)c(Cl)cc5[nH]ncc45)c3C)C2)C1` (single isomer, unassigned) [Example 294b], the IC50 worked out at 10 nM.

With `C=CC(=O)N1CC2(CC(n3nc(N4CC[C@@H](CN5CC6CC(C5)N6C(C)=O)CC4(C)C)c(-c4c(Cl)c(Cl)cc5[nH]ncc45)c3C)C2)C1` (single isomer, unassigned) [Example 301b], the IC50 was less than 5 nM.

`C=CC(=O)N1CC2(CC(n3nc(N4CCC(n5ccnc5)CC4(C)C)c(-c4c(Cl)c(C)cc5[nH]ncc45)c3C)C2)C1` (single isomer, unassigned) [Example 45a, 1-(6-(3-(4-(1H-imidazol-1-yl)-2,2-dimethylpiperidin-1-yl)-4-(5-chloro-6-methyl-1H-indazol-4-yl)-5-methyl-1H-pyrazol-1-yl)-2-azaspiro[3.3]heptan-2-yl)prop-2-en-1-one]: the IC50 was 365 nM.

Take `C=CC(=O)N1CC2(CC(n3nc(N4CCC(N(C)C(=O)COC)CC4(C)C)c(-c4c(Cl)c(C)cc5[nH]ncc45)c3C)C2)C1` (single isomer, unassigned) [Example 96b, N-(1-(1-(2-acryloyl-2-azaspiro[3.3]heptan-6-yl)-4-(5-chloro-6-methyl-1H-indazol-4-yl)-5-methyl-1H-pyrazol-3-yl)-2,2-dimethylpiperidin-4-yl)-2-methoxy-N-methylacetamide]: the IC50 came out at 11 nM.

In the case of `C=CC(=O)N1CC2(CC(n3nc(N4CC[C@H](N(C)C(C)=O)CC4(C)C)c(-c4c(Cl)c(C)cc5[nH]ncc45)c3C)C2)C1` (single isomer, unassigned) [Example 70b], the IC50 is 1000 nM.

Consider `C=CC(=O)N1CC2(CC(n3nc(N4CCC(N(CC)C5COC5)CC4(C)C)c(-c4c(Cl)c(Cl)cc5[nH]ncc45)c3C)C2)C1` (single isomer, unassigned) [Example 61b, 1-(6-(4-(5,6-dichloro-1H-indazol-4-yl)-3-(4-(ethyl(oxetan-3-yl)amino)-2,2-dimethylpiperidin-1-yl)-5-methyl-1H-pyrazol-1-yl)-2-azaspiro[3.3]heptan-2-yl)prop-2-en-1-one], for which the IC50 is 6 nM.

Turning to `C=CC(=O)N1CC2(CC(n3nc(N4CCN(C(C)C)CC45CCC5)c(-c4c(Cl)c(C)cc5[nH]ncc45)c3C)C2)C1` (single isomer, unassigned) [Example 131a, 1-(6-(4-(5-chloro-6-methyl-1H-indazol-4-yl)-3-(8-isopropyl-5,8-diazaspiro[3.5]nonan-5-yl)-5-methyl-1H-pyrazol-1-yl)-2-azaspiro[3.3]heptan-2-yl)prop-2-en-1-one], the IC50 is greater than 5000 nM.

With `C=CC(=O)N1CC2(CC(n3nc(N4CC[C@@H](CN5CCN(C6COC6)C6COCC65)CC4(C)C)c(-c4c(Cl)c(Cl)cc5[nH]ncc45)c3C)C2)C1` (single isomer, unassigned) [Example 281b, 1-(6-(4-(5,6-dichloro-1H-indazol-4-yl)-3-((R)-2,2-dimethyl-4-(((4aS*,7aR*)-4-(oxetan-3-yl)hexahydrofuro[3,4-b]pyrazin-1(2H)-yl)methyl)piperidin-1-yl)-5-methyl-1H-pyrazol-1-yl)-2-azaspiro[3.3]heptan-2-yl)prop-2-en-1-one], the IC50 was less than 5 nM.

For the molecule `C=CC(=O)N1CC2(CC(n3nc(N4CCN(C5COC5)CC4(C)C)c(-c4c(Cl)c(Cl)cc5[nH]ncc45)c3C)C2)C1` (single isomer, unassigned) [Example 73a, 1-(6-(4-(5,6-dichloro-1H-indazol-4-yl)-3-(2,2-dimethyl-4-(oxetan-3-yl)piperazin-1-yl)-5-methyl-1H-pyrazol-1-yl)-2-azaspiro[3.3]heptan-2-yl)prop-2-en-1-one], the IC50 was greater than 5000 nM.

As to `C=CC(=O)N1CC2(CC(n3nc(N4CCN(C5COC5)C[C@]4(C)CC)c(-c4c(Cl)c(C)cc5[nH]nc(N)c45)c3C)C2)C1` (single isomer, unassigned) [Example 158a], the IC50 was 6 nM.

Take `C=CC(=O)N1CC2(CC(n3nc(N4CCN(C(C)=O)C[C@@H]4CC)c(-c4c(Cl)c(C)cc5[nH]ncc45)c3C)C2)C1` (single isomer, unassigned) [Example 94a]: the IC50 is greater than 50000 nM.

Turning to `C=CC(=O)N1CC2(CC(n3nc(N4CCc5cnn(C)c5C4)c(-c4c(Cl)c(C)cc5[nH]ncc45)c3C)C2)C1` (single isomer, unassigned) [Example 14b, 1-(6-(4-(5-chloro-6-methyl-1H-indazol-4-yl)-5-methyl-3-(1-methyl-1,4,5,7-tetrahydro-6H-pyrazolo[3,4-c]pyridin-6-yl)-1H-pyrazol-1-yl)-2-azaspiro[3.3]heptan-2-yl)prop-2-en-1-one], the 50% inhibitory concentration (IC50) was found to be 364 nM.

Turning to `C=CC(=O)N1CC2(CC(n3nc(N4CCN(Cc5ccccc5)CC45CCC5)c(-c4c(Cl)c(C)cc5[nH]ncc45)c3C)C2)C1` (single isomer, unassigned) [Example 100b, 1-(6-(3-(8-benzyl-5,8-diazaspiro[3.5]nonan-5-yl)-4-(5-chloro-6-methyl-1H-indazol-4-yl)-5-methyl-1H-pyrazol-1-yl)-2-azaspiro[3.3]heptan-2-yl)prop-2-en-1-one], the IC50 was found to be 86 nM.

`C=CC(=O)N1CC2(CC(n3nc(N4CCC5(CN(C)CCO5)CC4(C)C)c(-c4c(Cl)c(C)cc5[nH]ncc45)c3C)C2)C1` (single isomer, unassigned) [Example 208a, 1-(6-(4-(5-chloro-6-methyl-1H-indazol-4-yl)-5-methyl-3-(4,8,8-trimethyl-1-oxa-4,9-diazaspiro[5.5]undecan-9-yl)-1H-pyrazol-1-yl)-2-azaspiro[3.3]heptan-2-yl)prop-2-en-1-one]: the concentration for half-maximal inhibition (IC50) worked out at 64 nM.
